Test results published in patent publication US20090053138A1, “Stabilized Aptamers to Platelet Derived Growth Factor and their Use as Oncology Therapeutics” (priority 2002, published 2009).
Read-outs that look alike come from different tables or passages of the source. [invdT] = inverted (3'-3') thymidine

Key:
PDGF BB [1] = target: T1, PDGF BB (Homo sapiens, UniProt P01127); assay: 3T3 cell proliferation assay (PDGF-BB induced); type: cell-based, rat; set-up: purchased PeproTech, Rocky Hill, N.J; details: for potency compared to ARC127: tyrosine kinase inhibitors
T1 sequence (P01127 82-190 limits assumed): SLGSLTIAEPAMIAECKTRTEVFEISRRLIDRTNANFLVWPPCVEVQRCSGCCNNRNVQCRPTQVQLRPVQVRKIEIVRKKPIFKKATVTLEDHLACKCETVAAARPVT
Protocol: 3T3 cells, a rat fibroblast cell line (ATCC, Manassas, Va.), were plated 3,000 cells/well in a 96 well plate one day prior to the start of the assay in 100 ul DMEM/10% FCS. The following day, cells were washed once with straight DMEM and then 75 ul DMEM/0.8% FCS was added to each well. […] Cells were incubated for 3 days. Following incubation 10 ul MTT (Promega, Madison, Wis.) was added to each well and incubated for an additional 1.5 hours. Media was then removed, 200 ul Isopropanol (2-propanol) was added to each well, cells were re-suspended thoroughly and absorbance at 570 nm was read on a 96 well plate reader.
(§1) 3T3 cells, which are derived from a rat fibroblast cell line (ATCC, Manassas, Va.), were used in a proliferation assay to test potency of modified ARC513 aptamers. 3T3 fibroblast cells have PDGF receptors on their cell-surface and respond to mitogen, e.g., PDGF stimulation by proliferation. The assay was performed as follows: 3T3 cells were plated 3,000 cells/well in a 96 well plate one day prior to the start of the assay in 100 ul DMEM/10% FCS. The following day, cells were washed once with straight DMEM and then 75 ul DMEM/0.8% FCS was added to each well. Then 25 ul of PDGF-BB (PeproTech, Rocky Hill, N.J.) at a 50 ng/ml final concentration was added to each well +/− aptamer condition to be tested. […] The functional PDGF aptamer dilutions usually consisted of 6 points in 2-fold serial dilutions.
Cells were incubated for 3 days. Following incubation 10 ul MTT (Promega, Madison, Wis.) was added to each well and incubated for an additional 1.5 hours. Media was removed, 200 μl Isopropanol (2-propanol) was added to each well, cells were re-suspended thoroughly and absorbance at 570 nm was read on a 96 well plate reader. The present example depicts the potency comparison of PDGF aptamer ARC: 513 to that of ARC 513 variants.
The 3T3 proliferation assay previously described was used to test potency of all PEG conjugated ARC513 variants described immediately above. The assay was performed as follows: 3T3 cells were plated 3,000 cells/well in a 96 well plate one day prior to the start of the assay in 100 ul DMEM/10% FCS. The following day, cells were washed once with straight DMEM and then 75 ul DMEM/0.8% FCS was added to each well. Then 25 ul of PDGF-BB (PeproTech, Rocky Hill, N.J.) at a 50 ng/ml final concentration was added to each well +/− aptamer condition to be tested. […] The functional PDGF aptamer dilutions usually consisted of 6 points in 2-fold serial dilutions.
Cells were incubated for 3 days. Following incubation 10 ul MTT (Promega, Madison, Wis.) was added to each well and incubated for an additional 1.5 hours. Media was removed, 200 μl Isopropanol (2-propanol) was added to each well, cells were re-suspended thoroughly and absorbance at 570 nm was read on a 96 well plate reader. The present example depicts the potency comparison of PDGF aptamer ARC513 to that of PEGylated ARC513 aptamers.
as §1, with “3T3” for “3T3 cells, which are derived from a rat fibroblast cell line (ATCC, Manassas, Va.), were used in a proliferation assay to test potency of modified ARC513 aptamers. 3T3”, “100 μl” for “100 ul”
Cells were incubated for 3 days. Following incubation 10 ul MTT (Promega, Madison, Wis.) was added to each well and incubated for an additional 1.5 hours. Media was removed, […] Isopropanol (2-propanol) was added to each well, cells were re-suspended thoroughly and absorbance at 570 nm was read on a 96 well plate reader.

PDGF BB [2] = target: T1, PDGF BB; assay: Competition binding assay, PDGF-BB; set-up: purchased PeproTech, Rocky Hill, N.J; details: Table 2, mean affinity, competitive binding assay; read-out: Affinity
Protocol: Binding reactions were carried out in phosphate-buffered saline (Cellgro, Herndon, Va.) containing 0.2 mg/mL bovine serum albumin (NEB) and 0.02 mg/mL tRNA (Sigma, St. Louis, Mo.). The reactions were equilibrated for a period of 15-30 minutes at room temperature, then filtered through a sandwich of nitrocellulose (Protran membrane, Perkin-Elmer, Boston, Mass.) and nylon (Hybond membrane, Amersham, Piscataway, N.J.) membranes to separate target bound aptamer from free aptamer.
Next, a study was done to determine whether ARC126 cross reacted with PDGF-BB of species other than human. Competition binding assays were set up by dot blot analysis, as previously described, using human, rat, and mouse PDGF-BB (PeproTech, Rocky Hill, N.J.).
The competitive binding assay previously described was used to determine the in vitro binding affinity and selectivity of ARC594 for different PDGF isoforms. Different concentrations of unlabeled, competitor aptamer were titrated in separate reactions against a fixed (<0.1 nM) amount of ^32P-radiolabeled ARC594 in buffer containing a fixed amount (0.1 nM) of the aptamer's cognate target (PDGF-BB; PeproTech). UnPEGylated version of ARC594 was radiolabeled at the 5′ terminus by incubation with γ-^32P-ATP (ICN) and polynucleotide kinase (NEB). Binding reactions were carried out in phosphate-buffered saline (Cellgro) containing 0.2 mg/mL bovine serum albumin (NEB) and 0.02 mg/mL tRNA (Sigma). The reactions were equilibrated for a period of 15-30 minutes at room temperature, then filtered through a sandwich of nitrocellulose (Protran membrane, Perkin-Elmer) and nylon (Hybond membrane, Amersham) membranes to separate target bound aptamer from free aptamer. […] The data was expressed as the ratio of the counts per minute (CPM) of radioactivity due to ^32P-ARC594 bound to PDGF BB on the nitrocellulose membrane (CPMnitrocellulose or CPMnc) over the total CPM (CPMtotal=CPMnitrocellulose+CPMnylon).

[3] = Pharmacokinetics of ARC126 5′ PEG conjugates in mice; details: IV administration at 10 mg/kg in mice
Text: The pharmacokinetic (PK) data shown in FIG. 12A was subjected to non-compartmental analysis (NCA) using the industry-standard software package WinNonLin™ v.4.0 (Pharsight Corp., Mountain View, Calif.). […] The pharmacokinetic (PK) data shown in FIG. 12B was subjected to noncompartmental analysis (NCA) using the industry-standard software package WinNonLin™ v.4.0 (Pharsight Corp., Mountain View, Calif.).
The pharmacokinetic (PK) data shown in FIG. 12B was subjected to noncompartmental analysis (NCA) using the industry-standard software package WinNonLin™ v.4.0 (Pharsight Corp., Mountain View, Calif.).

[4] = test system: LS174T colon cancer xenograft; details: Experiment 3
Text: Experimental overview. Human HT-29 or LS174T colon cancer xenotransplants were established in athymic nude mice (Nu/Nu mice, Charles River Labs, Wilmington, Mass.) by injecting mice with 1×10^7 HT29 cells (ATCC, Manassas, Va.), or 2×10^6 LS174T cells (ATCC Manassas, Va.) sub-cutaneously and allowing the tumors to grow for 5 days. On day 5, two dimensional measurements of the established tumors were taken using a digital caliper. Once tumor measurements were taken, the mice were randomized into groups such that the average tumor size was the same in each group. […]
A third experiment (Experiment 3) was designed to test ARC308/irinotecan and GLEEVEC™/irinotecan dosing regimens in a colon cancer xenotransplant model using human colon carcinoma cell line LS174T (ATCC). […] ARC308 was dosed via intraperitoneal delivery at 50 mg/kg once daily, and GLEEVEC™ was dosed at 50 mg/kg once daily, Monday through Friday. ARC308 prevents PDGF-BB from binding the PDGF receptor; this molecule has a 30K PEG attached. […] The results are statistically significant (two tailed students T-test).
An efficacy analysis of three treatment groups in this study is shown in Table 10 in terms of log cell kill and log cell kill net. Log cell kill is the log(base10) of the number of tumor cells before treatment divided by the number of cells after treatment. […] A fourth experiment (Experiment 4) was designed to further test ARC308/irinotecan dosing regimens in a colon cancer xenotransplant model using human colon carcinoma cell line LS174T (ATCC). […]

[5] = Table 2, mean activity, 3T3 proliferation assay, read-out: Activity

5′-(SEQ ID NO: 36)-PEG-(SEQ ID NO: 37)-PEG-(SEQ ID NO: 38)-[3′]-3′ (chain 1 CAGGCTACG; chain 2 CGTAGAGCATCA; chain 3 TGATCCTG; piece 1: 2'-O-methyl at 9, other sugars and backbone not given here; piece 2: 2'-O-methyl at 5, 7, 12, other sugars and backbone not given here; piece 3: 2'-O-methyl at 8, other sugars and backbone not given here; further chemistry not fully specified) [ARC276]
IC50 (PDGF BB [1]; [5]): 18 nM | Kd (PDGF BB [2]): 0.23 nM

5′-(SEQ ID NO: 69)-PEG-(SEQ ID NO: 40)-PEG-(SEQ ID NO: 70)-[3′T]-3′ (chain 1 CCCAGGCTACG; chain 2 CGTAGAGCAUCA; chain 3 TGATCCTGGG; piece 1: 2'-O-methyl at 11, other sugars and backbone not given here; piece 2: 2'-O-methyl at 5, 7, 10, 11, 12, other sugars and backbone not given here; piece 3: 2'-O-methyl at 5, 8, 9, 10, 3' [invdT], other sugars and backbone not given here; pieces joined by PEG spacers) [ARC513]
IC50 (PDGF BB [1]; PDGF-BB 50 ng/ml, read-out: IC50 values routinely displayed): < 10 nM

5′-[20K PEG]-(SEQ ID NO:1)-HEG-(SEQ ID NO:2)-HEG-(SEQ ID NO:3)-3′-dT-3′ (chain 1 CAGGCUACG; chain 2 CGTAGAGCAUCA; chain 3 TGATCCUG; 5′ 20 kDa PEG; HEG spacers; 3′ dT cap; synthetic aptamer; modified_base (6)..(6) uridine is 2′-fluoro; modified_base (8)..(8) cytidine is 2′-fluoro; modified_base (9)..(9) gm; modified_base (5)..(5) gm; modified_base (7)..(7) gm; modified_base (10)..(10) uridine is 2′-fluoro; modified_base (11)..(11) cytidine is 2′-fluoro; modified_base (12)..(12) adenosine is 2′-O-Methyl; modified_base (5)..(6) cytidine is 2′-fluoro; modified_base (7)..(7) uridine is 2′-fluoro; modified_base (8)..(8) gm) [ARC240]
Cmax [3]: 34.3 µM | MRT [3]: 1.16 h | Vs [3]: 0.0003 L/kg | t1/2 [3]: 0.94 h

124 (ACCATGATCCTGTG; 3' inverted dT, further chemistry not given here) [compound 124]
IC50 (PDGF BB [1]; [5]): 3.45 nM | IC50 (PDGF BB [1]; Table 6, PDGF-BB 50 ng/ml, nM, read-out: Mean IC50): 20.7 nM | Kd (PDGF BB [2]): 0.21 nM

Cc1cc2ncc(-c3ccccc3)nc2cc1C [AG 1295, reference compound]
potency compared to ARC127 (PDGF BB [1]): much worse potencies

Cc1cc2ncc(-c3ccc(O)c(O)c3)nc2cc1C [AG 1433, reference compound]
unspecific toxic effects, concentration from which visible (PDGF BB [1]; signal lower than no treatment): ≥ 300 nM | potency compared to ARC127 (PDGF BB [1]): much worse potencies

CCc1c2c(nc3ccc(OC(=O)N4CCC(N5CCCCC5)CC4)cc13)-c1cc3c(c(=O)n1C2)COC(=O)[C@]3(O)CC [Irinotecan, irinotecan, reference compound]
Activity Assessment [4]: Active | Log cell kill ([4]; target size 1000 mm^3, ARC308 50 mg/kg, irinotecan 150 mg/kg, combination extrapolated): 1.95 | Log cell kill net ([4]; treatment duration 18 days, combination extrapolated): 0.28

SEQ ID NO: 42-PEG-SEQ ID NO: 43-PEG-SEQ ID NO: 44 (chain 1 CAGGCTACG; chain 2 CGTAGAGCATCA; chain 3 TGATCCTG; DNA, backbone not given here; PEG-6 spacers join the three pieces) [ARC299]
binding affinity and cell-based assay activity (in words) (PDGF BB [1]; in vitro biochemical binding and cell-based proliferation assays): significantly reduced activity/potency
